Measurements reported in patent US8143238B2, “Methods of increasing epidermal skin thickness by topical administration of a 19-nor containing vitamin D compound” (Wisconsin Alumni Research Foundation, priority 2008, dated 2012).

Columns and labels:
[1] = test system: Rhino mice; assay: Epidermal thickness of Rhino mice after 3 weeks of daily topical administration (histological analysis); type: in vivo, mouse; details: for API-Treated Epidermal Thickness (% Vehicle): 70% ethanol/30% propylene glycol, mean ± SEM
Experimental: Methods. Animals and dose administration. Rhino mice 6-8 weeks old were dosed daily via the topical route. The mice were weighed three times per week. Doses of API were adjusted weekly based on body weight. The topical formulations dosage forms were made by mixing the API with two different topical carriers. One topical carrier consisted of 70 vol % propylene glycol and 30 vol % ethanol. The other topical carrier consisted of 30 vol % propylene glycol and 70 vol % ethanol. The topical vehicle control for a given comparative example was the vehicle carrier used in the API-formulated topical dosage form. Animals were euthanized 72 hours after administration of the final topical dose, and dorsal skin was collected for histological analysis.
Measurement of epidermal thickness.
Epidermal thickness was determined by histological analysis of tissue sections. Skin was fixed overnight in 4% paraformaldehyde at 4° C. with gentle agitation. The skin was dehydrated the following day in 100% methanol. Samples were embedded in paraffin. Nine sections, each measuring 10 μm and each separated by 150 μm, were taken from each mouse and stained with hematoxylin and eosin stain. Five of the nine sections were digitally imaged (6× magnification) for analysis of the epidermal thickness using Metamorph Imaging Software (single line function).
The thickness of the epidermis adjacent to each comedone (open or healed) on each respective image of the five sections was also then measured using a Wacom Intuos 3 Graphics Tablet interfaced with the software. The average width was determined for each Rhino mouse from multiple measurements. Individual epidermal thickness average was determined from a composite of measurements taken from all 5 images. Such average for each mouse was used to calculate the treatment group mean. Results in the figures are expressed in terms of mean±standard error of the mean.
Preparation of topical formulations and dosage forms containing the various API's including 2MBis P, CAGE-3, 24R-2MD2, VitIII (17-20E), NEL, VD-03, 2MPregna, 2MP, 20R-2MBisP, 2MTrisP, FF-44, FF-55, HPBS and 13Me2. Separate concentrated ethanolic stock solutions of each API were diluted to a predetermined dose concentration using a topical carrier vehicle. Two different carrier vehicles were used. One topical carrier consisted of 70 vol % propylene glycol and 30 vol % ethanol. The other topical carrier consisted of 30 vol % propylene glycol and 70 vol % ethanol. The vehicle was thoroughly mixed with the API. The topical dosing formulation and dosage form delivered a predetermined amount of API on a per kilogram body weight basis.
A 100 μL dose was administered to the back of the mouse. An average weight of 24-30 g/mouse was assumed initially in the dose volume calculations. Dosing volumes were adjusted weekly to deliver the predetermined desired dose amount of API based on the body weight of each animal.

[2] = test system: hairless C3H mouse; details: topical administration to skin of hairless C3H mouse; cited from earlier work
[3] = test system: keratinocytes in culture; details: cited from earlier work
[4] = 217 nmole/kgBW/day topical, 3 weeks, 70 vol. % ethanol/30 vol. % propylene glycol
[5] = 694 nmole/kgBW/day topical, 3 weeks, 70 vol. % ethanol/30 vol. % propylene glycol
[6] = topical API dose 217 nmol/kg daily, 3 weeks
[7] = topical API dose 694 nmol/kg daily, 3 weeks

C=C1/C(=C\C=C2/CCC[C@]3(C)[C@@H]([C@H](C)CCCC(C)(C)O)CC[C@@H]23)C[C@@H](O)C[C@@H]1O [1,25(OH)2D3, 1α,25-dihydroxy-vitamin D3]
epidermal thickness as compared to the vehicle-only control (in words) ([1]; 6 nmole/kgBW daily topical, 3 weeks, 70 vol. % ethanol/30 vol. % propylene glycol): very modest increase in epidermal thickness
API-Treated Epidermal Thickness (% Vehicle) ([1]; topical API dose 6.0 nmol/kg daily, 3 weeks): 118 ± 7 % Vehicle
epidermal proliferation [2]: induce epidermal proliferation
epidermal thickness [2]: increase epidermal thickness
proliferation of keratinocytes [3]: inhibit the proliferation

C=C1[C@H](O)CC(=C/C=C2\CCC[C@]3(C)[C@@H]([C@@H](C)CC)CC[C@@H]23)C[C@H]1O [2MBisP, 2-methylene-19-nor-20(S)-1α-hydroxy-bishomopregnacalciferol]
epidermal thickness as compared to the vehicle control (in words) [1, 4]: significant increase in epidermal thickness
epidermal thickness as compared to the vehicle control (in words) [1, 5]: significant increase in epidermal thickness
potency at increasing epidermal thickness relative to 20R-2MBisP ([1]; doses of 217 and 694 nmole/kgBW/day topical, 3 weeks): approximately one-half log more potent
API-Treated Epidermal Thickness (% Vehicle) [1, 6]: 220 ± 8 % Vehicle
API-Treated Epidermal Thickness (% Vehicle) [1, 7]: 231 ± 6 % Vehicle

C=C1C(O)CC(=CC=C2CCCC3(C)C2CCC3C(C)C)CC1O (stereo not drawn) [2MP, 1α-hydroxy-2-methylene-19-nor-homopregnacalciferol]
epidermal thickness as compared to the vehicle control (in words) [1, 4]: significant increase in epidermal thickness
API-Treated Epidermal Thickness (% Vehicle) [1, 6]: 207 ± 8 % Vehicle

C=C1[C@H](O)CC(=C/C=C2\CCC[C@]3(C)C(CC)CCC23)C[C@H]1O (stereo partly drawn) [2MPregna, 2-methylene-19-nor-1α-hydroxy-pregnacalciferol]
epidermal thickness as compared to the vehicle control (in words) [1, 4]: significant increase in epidermal thickness
API-Treated Epidermal Thickness (% Vehicle) [1, 6]: 183 ± 8 % Vehicle

C=C1[C@H](O)CC(=C/C=C2\CCC[C@]3(C)[C@@H]([C@@H](C)CCC)CC[C@@H]23)C[C@H]1O [2MTrisP, 2-methylene-(20S)-19-nor-1α-hydroxy-trishomopregnacalciferol]
epidermal thickness as compared to the vehicle control (in words) [1, 4]: significant increase in epidermal thickness
API-Treated Epidermal Thickness (% Vehicle) [1, 6]: 221 ± 15 % Vehicle

C=C1[C@H](O)CC(=C/C=C/CC(C)(C)C[C@@H](C)CCCC(C)(C)O)C[C@H]1O [13Me2, 13,13-dimethyl-des-C,D analog of (20S)-2-methylene-1α,25-dihydroxy-19-nor-vitamin D3]
epidermal thickness as compared to the vehicle control (in words) [1, 4]: significant increase in epidermal thickness
API-Treated Epidermal Thickness (% Vehicle) [1, 6]: 229 ± 12 % Vehicle

C=C1[C@H](O)CC(=C/C=C2\CCC[C@]3(C)[C@@H]([C@H](C)CC)CC[C@@H]23)C[C@H]1O [20R-2MBisP, (20R)-1α-hydroxy-2-methylene-19-nor-bishomopregnacalciferol]
epidermal thickness as compared to the vehicle control (in words) [1, 4]: some increase in epidermal thickness
epidermal thickness as compared to the vehicle control (in words) [1, 5]: significant increase in epidermal thickness
API-Treated Epidermal Thickness (% Vehicle) [1, 6]: 155 ± 7 % Vehicle
API-Treated Epidermal Thickness (% Vehicle) [1, 7]: 209 ± 13 % Vehicle

C=C1[C@H](O)CC(=C/C=C2\CCC[C@]3(C)C([C@H](C)/C=C/[C@@H](C)C(C)(C)O)CC[C@@H]23)C[C@H]1O (stereo partly drawn) [(24R)2MD2, 2-methylene-19-nor-(24R)-1α,25-dihydroxyvitamin D2]
epidermal thickness as compared to the vehicle control (in words) ([1]; 2.33 nmole/kgBW/day topical, 3 weeks, 70 vol. % ethanol/30 vol. % propylene glycol): significant increase in epidermal thickness
API-Treated Epidermal Thickness (% Vehicle) ([1]; topical API dose 2.3 nmol/kg daily, 3 weeks): 189 ± 13 % Vehicle

C=C1[C@H](O)CC(=C/C=C2\CCC[C@]3(C)[C@@H]([C@@H](C)CCCC4(O)CCCC4)CC[C@@H]23)C[C@H]1O [CAGE-3, 19-nor-26,27-dimethylene-20(S)-2-methylene-1α,25-dihydroxyvitamin D3]
epidermal thickness as compared to the vehicle control (in words) ([1]; 0.9 ng/day (ca. 100 picomole/kgBW/day), 0.45 ng/day from day 10, 0.22 ng/day (25 picomole/kgBW/day) from day 19, vehicle 30 vol. % ethanol/70 vol. % propylene glycol): increase in epidermal thickness
epidermal thickness compared to the vehicle control (in words) ([1]; lowest dose 0.0079 nmol/kgBW daily topical, 3 weeks, 70 vol. % ethanol/30 vol. % propylene glycol): some increase in epidermal thickness
epidermal thickness as compared to the control vehicle (in words) ([1]; three higher doses 0.025, 0.079 and 0.25 nmol/kgBW daily topical, 3 weeks, 70 vol. % ethanol/30 vol. % propylene glycol): significant increase in epidermal thickness
API-Treated Epidermal Thickness (% Vehicle) ([1]; topical API dose 0.025 nmol/kg daily, 3 weeks): 162 ± 11 % Vehicle
API-Treated Epidermal Thickness (% Vehicle) ([1]; topical API dose 0.079 nmol/kg daily, 3 weeks): 274 ± 14 % Vehicle
API-Treated Epidermal Thickness (% Vehicle) ([1]; topical API dose 0.25 nmol/kg daily, 3 weeks): 293 ± 8 % Vehicle

C=C1[C@H](O)CC(=C/C=C2\CCC[C@@]3(C)C2CCC3[C@H](C)CC(F)F)C[C@H]1O (stereo partly drawn) [FF-44, 2-methylene-(20R)-23,23-difluoro-1α-hydroxy-19-nor-bishomopregnacalciferol]
epidermal thickness as compared to the vehicle control (in words) [1, 4]: significant increase in epidermal thickness
API-Treated Epidermal Thickness (% Vehicle) [1, 6]: 206 ± 22 % Vehicle

C=C1[C@H](O)CC(=C/C=C2\CCC[C@@]3(C)C2CCC3[C@@H](C)CC(F)F)C[C@H]1O (stereo partly drawn) [FF-55, 2-methylene-(20S)-23,23-difluoro-1α-hydroxy-19-nor-bishomopregnancalciferol]
epidermal thickness as compared to the vehicle control (in words) [1, 4]: significant increase in epidermal thickness
API-Treated Epidermal Thickness (% Vehicle) [1, 6]: 225 ± 9 % Vehicle

CC(C)C[C@H](C)[C@H]1CC[C@H]2/C(=C/C=C3C[C@@H](O)C(=CCCO)[C@H](O)C3)CCC[C@]12C [HPBS, 2-(3′hydroxypropyl-1′,2′-idene)-19,23,24-trinor-(20S)-1α-hydroxyvitamin D3]
epidermal thickness as compared to the control vehicle (in words) ([1]; 217 nmole/kgBW/day for 3 days (2 mice) or 10 days (4 mice), then 122 nmole/kgBW/day, 3 weeks daily topical, 70 vol. % ethanol/30 vol. % propylene glycol): significant increase in epidermal thickness
API-Treated Epidermal Thickness (% Vehicle) ([1]; topical API dose 217 to 122 nmol/kg daily (dose changed on day 10), 3 weeks): 189 ± 13 % Vehicle

C=C1[C@H](O)CC(=C/C=C2\CCC[C@]3(C)[C@@H]([C@H](C)CCC[C@H](C)O)CC[C@@H]23)C[C@H]1O [NEL, 2-methylene-(20R,25S)-19,26-dinor-1α,25-dihydroxyvitamin D3]
epidermal thickness, dose dependence (in words) ([1]; 7.5 and 25 nmole/kgBW/day topical, 3 weeks, 70 vol. % ethanol/30 vol. % propylene glycol): dose-dependent increase in epidermal thickness
API-Treated Epidermal Thickness (% Vehicle) ([1]; topical API dose 7.5 nmol/kg daily, 3 weeks): 145 ± 4 % Vehicle
API-Treated Epidermal Thickness (% Vehicle) ([1]; topical API dose 25 nmol/kg daily, 3 weeks): 189 ± 11 % Vehicle

C=C1[C@H](O)CC(=C/C=C2\CCC[C@@H]3[C@@H]([C@@H](C)CCCC(C)(C)O)CC[C@@H]23)C[C@H]1O [VD-03, 2-methylene-18,19-dinor-(20S)-1α,25-dihydroxyvitamin D3]
API-Treated Epidermal Thickness (% Vehicle) ([1]; topical API dose 0.62 nmol/kg daily, 3 weeks): 225 ± 6 % Vehicle

C=C1[C@H](O)CC(=C/C=C2\CCC[C@]3(C)/C(=C(\C)CCCC(C)(C)O)CC[C@@H]23)C[C@H]1O [Vit-III 17-20E, 2-methylene-1α,25-dihydroxy-(17E)-17(20)-dehydro-19-nor-vitamin D3]
epidermal thickness as compared to the vehicle control (in words) ([1]; 24.1 nmole/kgBW/day topical, 3 weeks, 70 vol. % ethanol/30 vol. % propylene glycol): significant increase in epidermal thickness
API-Treated Epidermal Thickness (% Vehicle) ([1]; topical API dose 24 nmol/kg daily, 3 weeks): 216 ± 13 % Vehicle
